# What was measured:
# Assay type in all cases: cell-based
# [1] = target: Ba/F3 EGFR-V769_D770insASV (Homo sapiens, UniProt P00533, DUP767-769, cells depend on it); assay: Proliferation experiment of Ba/F3 cell line, EGFR-V769_D770insASV (CellTiter-Glo); details: cultured for 72 hrs with compound, CTG analysis, read-out: Ba/F3 EGFR-V769_D770insASV IC50
# Description: (§1) Proliferation Experiment of Ba/F3 Cell Line
# (§2) (I) Reagents and Materials
# (§3) • Fetal bovine serum FBS (GBICO, Cat #10099-141); • CellTiter-Glo® luminescent cell viability assay kit (Promega, Cat #G7572); • Black transparent flat-bottom 96 well plate (Corning®, Cat #3603). (II) Instruments • SpectraMax multi-label microplate reader MD, 2104-0010A; • Carbon dioxide incubator, Thermo Scientific 3100 series; • Biological safety cabinet, Thermo Scientific, 1300 series model A2; • Inverted microscope, Olympus, CKX41SF; • Siemens refrigerator KK25E76TI. (III) Cell Lines and Culture Conditions
# (§4) (IV) Experimental Procedures 1. Cell Culture and Inoculation: • (1) Cells in the logarithmic growth phase were harvested and counted using a […]. Cell viability was detected by Trypan Blue Dye Exclusion Method to ensure cell viability above 90%. • (2) The cell concentration was adjusted to reach a desired final density; 90 μL of cell suspension was added to the 96-well plate. • (3) The cells were incubated overnight in the 96-well plate at 37° C., 5% CO2 and at 95% humidity.
# (§5) 2. T0 Reference Data: • (1) 10 μL PBS was added to each well of the TO plate containing the cells. • (2) The CTG reagent was thawed and the cell plate was equilibrated to room temperature for 30 min. • (3) An equal volume of CTG solution was added to each well. • (4) The cells were lysed by shaking on an orbital shaker for 5 min. • (5) The cell plate was left at room temperature for 20 min to stabilize the luminescence signal. • (6) The fluorescence signal values of TO were read. 3. Dilution and Addition of Compounds • (1) According to the compound information table, a corresponding volume of DMSO was added to the corresponding compound powder to prepare a 10 mM stock solution. • (2) A 1000-fold, 3.16-fold-diluted compound solution was prepared. • (3) The 1000× diluted compound solution was diluted 100-fold with PBS to prepare a 10-fold compound solution with a maximum concentration of […], including 9 concentrations, with 3.16-fold dilution, and 10 μL of the medicament solution was added to each well of the 96-well plate to seed the cells. Triplicate wells were set for each compound concentration, with a final concentration of DMSO being 0.1%. • (4) The cells were placed in the 96-well plate filled with the medicament at 37° C., 5% CO2 and at 95% humidity, and cultured for 72 hrs before CTG analysis. 4. Fluorescence Signal Reading • (1) The CTG reagent was thawed and the cell plate was equilibrated to room temperature for 30 min. • (2) An equal volume of CTG solution was added to each well. • (3) The cells were lysed by shaking on an orbital shaker for 5 min. • (4) The cell plate was left at room temperature for 20 min to stabilize the fluorescence signal. • (5) The fluorescence values were read. 5. Data Processing
# (§6) Data were analyzed using GraphPad Prism 7.0 software and fitted data were regressed using non-linear S-curves to obtain dose-response curves from which IC50 values (in nM) were calculated.
# [2] = tested on: A431 (EGFR-WT); assay: Proliferation experiment, A431 cell line (CellTiter-Glo); details: Homo sapiens, A-431; A431 cells, cultured for 72 hrs with compound, CTG analysis
# Description: [The procedure below names another cell line; the source lists this cell line under the same test.] as §1, §2, §3, §4, §5, §6
# [3] = target: Ba/F3 EGFR-D770-N771ins_SVD (Homo sapiens, UniProt P00533, DUP768-770, cells depend on it); assay: Proliferation experiment of Ba/F3 cell line, EGFR-D770-N771ins_SVD (CellTiter-Glo); details: cultured for 72 hrs with compound, CTG analysis, read-out: Ba/F3 EGFR-D770-N771ins_SVD IC50
# Sequence of Ba/F3 EGFR-D770-N771ins_SVD (P00533 with tags, fused parts or gaps DUP768-770): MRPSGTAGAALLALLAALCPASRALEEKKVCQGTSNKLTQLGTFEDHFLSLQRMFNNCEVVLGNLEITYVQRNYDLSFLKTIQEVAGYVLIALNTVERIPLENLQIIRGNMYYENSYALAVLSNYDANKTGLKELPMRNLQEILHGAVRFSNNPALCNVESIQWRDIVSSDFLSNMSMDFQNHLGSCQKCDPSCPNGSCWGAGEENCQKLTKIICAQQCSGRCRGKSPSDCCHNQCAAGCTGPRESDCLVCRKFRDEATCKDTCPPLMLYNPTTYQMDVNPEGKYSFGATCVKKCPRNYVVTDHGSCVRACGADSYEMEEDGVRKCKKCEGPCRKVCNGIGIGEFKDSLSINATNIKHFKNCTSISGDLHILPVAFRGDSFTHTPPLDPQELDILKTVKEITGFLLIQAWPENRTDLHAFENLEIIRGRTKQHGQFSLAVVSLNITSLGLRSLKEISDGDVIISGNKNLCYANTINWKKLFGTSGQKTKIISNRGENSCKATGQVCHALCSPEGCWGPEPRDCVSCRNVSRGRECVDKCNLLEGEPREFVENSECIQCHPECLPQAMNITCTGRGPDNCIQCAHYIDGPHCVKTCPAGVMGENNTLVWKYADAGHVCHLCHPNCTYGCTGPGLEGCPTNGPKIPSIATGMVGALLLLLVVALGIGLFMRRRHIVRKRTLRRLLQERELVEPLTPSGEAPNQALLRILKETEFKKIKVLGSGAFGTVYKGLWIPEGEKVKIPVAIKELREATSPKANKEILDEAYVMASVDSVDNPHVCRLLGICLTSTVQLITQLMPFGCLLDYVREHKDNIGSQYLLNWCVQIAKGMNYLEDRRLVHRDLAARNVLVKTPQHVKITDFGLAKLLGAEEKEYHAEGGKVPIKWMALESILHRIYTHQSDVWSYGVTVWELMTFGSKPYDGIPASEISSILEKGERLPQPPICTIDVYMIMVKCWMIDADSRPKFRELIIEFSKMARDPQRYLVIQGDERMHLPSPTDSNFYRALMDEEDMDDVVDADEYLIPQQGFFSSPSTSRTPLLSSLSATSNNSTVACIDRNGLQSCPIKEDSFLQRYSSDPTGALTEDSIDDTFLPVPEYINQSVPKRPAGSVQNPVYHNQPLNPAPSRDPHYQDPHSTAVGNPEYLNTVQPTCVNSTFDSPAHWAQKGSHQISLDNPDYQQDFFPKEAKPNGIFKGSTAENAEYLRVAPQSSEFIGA
# Description: as §1, §2, §3, §4, §5, §6
# Sequence of Ba/F3 EGFR-V769_D770insASV (P00533 with tags, fused parts or gaps DUP767-769): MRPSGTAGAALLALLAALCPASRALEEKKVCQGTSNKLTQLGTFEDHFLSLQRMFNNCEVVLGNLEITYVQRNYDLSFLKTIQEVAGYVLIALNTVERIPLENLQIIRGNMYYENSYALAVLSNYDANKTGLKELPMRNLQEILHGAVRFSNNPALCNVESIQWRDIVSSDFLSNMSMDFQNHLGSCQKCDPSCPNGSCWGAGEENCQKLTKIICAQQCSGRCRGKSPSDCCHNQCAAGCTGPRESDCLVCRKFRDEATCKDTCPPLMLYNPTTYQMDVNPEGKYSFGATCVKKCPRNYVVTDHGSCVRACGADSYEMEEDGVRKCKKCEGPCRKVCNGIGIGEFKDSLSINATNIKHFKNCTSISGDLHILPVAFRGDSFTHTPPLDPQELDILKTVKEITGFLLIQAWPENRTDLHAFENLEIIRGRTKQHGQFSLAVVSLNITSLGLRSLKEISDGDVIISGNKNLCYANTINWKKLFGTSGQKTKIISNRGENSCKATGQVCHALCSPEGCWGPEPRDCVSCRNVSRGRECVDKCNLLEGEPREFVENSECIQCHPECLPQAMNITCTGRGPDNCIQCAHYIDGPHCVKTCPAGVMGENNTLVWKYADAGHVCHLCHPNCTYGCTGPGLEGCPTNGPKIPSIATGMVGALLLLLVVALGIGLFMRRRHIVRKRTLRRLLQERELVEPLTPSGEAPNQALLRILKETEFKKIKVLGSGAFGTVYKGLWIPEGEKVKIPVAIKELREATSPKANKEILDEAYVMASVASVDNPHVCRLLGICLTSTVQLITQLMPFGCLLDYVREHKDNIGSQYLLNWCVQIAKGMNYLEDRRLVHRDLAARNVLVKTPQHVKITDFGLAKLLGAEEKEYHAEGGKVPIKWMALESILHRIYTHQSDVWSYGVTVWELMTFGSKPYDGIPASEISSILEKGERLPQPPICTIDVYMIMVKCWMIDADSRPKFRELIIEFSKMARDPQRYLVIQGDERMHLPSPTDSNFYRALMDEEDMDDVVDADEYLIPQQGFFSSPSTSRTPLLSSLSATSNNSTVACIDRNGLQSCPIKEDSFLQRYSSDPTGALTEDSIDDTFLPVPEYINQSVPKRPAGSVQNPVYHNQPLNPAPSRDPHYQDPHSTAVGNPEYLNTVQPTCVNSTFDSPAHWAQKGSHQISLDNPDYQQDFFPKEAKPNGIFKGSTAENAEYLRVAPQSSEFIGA
GI50 [1] [nM],IC50 [2] [nM],GI50 [3] [nM],Structure (SMILES)
14.8,225,4.4,"C=C(F)C(=O)Nc1cc2c(Nc3ccnc(-c4ccccc4F)c3)ncnc2cc1N1CCC(O)CC1 [Example 100, 2-fluoro-N-(4-((2-(2-fluorophenyl)pyridin-4-yl)amino)-7-(4-hydroxypiperidin-1-yl)quinazolin-6-yl)acrylamide]"
5.2,122,3.1,"C=CC(=O)Nc1cc2c(Nc3ccnc(-c4ccc(F)cc4F)c3)ncnc2cc1O[C@@H]1CCN(C)C1 [Example 81, (R)-N-(4-((2-(2,4-difluorophenyl)pyridin-4-yl)amino)-7-((1-methylpyrrolidin-3-yl)oxy)quinazolin-6-yl)acrylamide]"
35.8,461,11.9,"C=C(F)C(=O)Nc1cc2c(Nc3ccnc(-c4ccccc4F)c3)ncnc2cc1OC1CC1 [Example 90, N-(7-cyclopropoxy-4-((2-(2-fluorophenyl)pyridin-4-yl)amino)quinazolin-6-yl)-2-fluoroacrylamide]"
117,343,38.5,"C=CC(=O)Nc1cc2c(Nc3cccc(-c4ccc(F)cc4F)c3)ncnc2cc1OCCN1CCOCC1 [Example 3, N-(4-((2′,4′-difluoro-[1,1′-biphenyl]-3-yl)amino)-7-(2-morpholinoethoxy)quinazolin-6-yl)acrylamide]"
35,2500,12.7,"C=C(F)C(=O)Nc1cc2c(Nc3ccnc(-c4ccccc4F)c3)ncnc2cc1N1CCC1 [Example 105, N-(7-(azetidin-1-yl)-4-((2-(2-fluorophenyl)pyridin-4-yl)amino)quinazolin-6-yl)-2-fluoroacrylamide]"
21,362,22.6,"C=CC(=O)Nc1cc2c(Nc3cccc(-c4c(F)cccc4F)c3)ncnc2cc1OCCCN1CCN(CC)CC1 [Example 28, N-(4-((2′,6′-difluoro-[1,1′-biphenyl]-3-yl)amino)-7-(3-(4-ethylpiperazin-1-yl)propoxy)quinazolin-6-yl)acrylamide]"
6.5,10.2,5.9,"C=C(F)C(=O)Nc1cc2c(Nc3ccnc(-c4ccccc4F)c3)ncnc2cc1O[C@@H]1CCN(C)C1 [Example 66, (R)-2-fluoro-N-(4-((2-(2-fluorophenyl)pyridin-4-yl)amino)-7-((1-methylpyrrolidin-3-yl)oxy)quinazolin-6-yl)acrylamide]"
32.7,655,12.7,"C=C(F)C(=O)Nc1cc2c(Nc3ccnc(-c4ccccc4F)c3)ncnc2cc1OCC1CC1 [Example 91, N-(7-(cyclopropylmethoxy)-4-((2-(2-fluorophenyl)pyridin-4-yl)amino)quinazolin-6-yl)-2-fluoroacrylamide]"
89,61.4,37.5,"C=CC(=O)Nc1cc2c(Nc3cccc(-c4ccc(F)cc4)c3)ncnc2cc1OCCCN1CCOCC1 [Example 6, N-(4-((4′-fluoro-[1,1′-biphenyl]-3-yl)amino)-7-(3-morpholinopropoxy)quinazolin-6-yl)acrylamide]"
7.5,820,3.3,"C=CC(=O)Nc1cc2c(Nc3ccnc(-c4ccccc4F)c3)ncnc2cc1OCC [Example 83, N-(4-((2-(2-fluorophenyl)pyridin-4-yl)amino)-7-ethoxyquinazolin-6-yl)acrylamide]"
221,365,34.4,"C=CC(=O)Nc1cc2c(Nc3cccc(-c4ccc(F)cc4F)c3)ncnc2cc1OCCCN1CCC(F)(F)CC1 [Example 14, N-(4-((2′,4′-difluoro-[1,1′-biphenyl]-3-yl)amino)-7-(3-(4,4-difluoropiperidin-1-yl)propoxy)quinazolin-6-yl)acrylamide]"
47.5,302,31.6,"C=CC(=O)Nc1cc2c(Nc3cccc(-c4c(F)cccc4F)c3)ncnc2cc1O[C@@H]1CCN(C)C1 [Example 37, (R)-N-(4-((2′,6′-difluoro-[1,1′-biphenyl]-3-yl)amino)-7-((1-methylpyrrolidin-3-yl)oxy)quinazolin-6-yl)acrylamide]"
6.4,73.2,2.9,"C=CC(=O)Nc1cc2c(Nc3ccnc(-c4c(F)cccc4F)c3)ncnc2cc1O[C@@H]1CCN(C)C1 [Example 76, (R)-N-(4-((2-(2,6-difluorophenyl)pyridin-4-yl)amino)-7-((1-methylpyrrolidin-3-yl)oxy)quinazolin-6-yl)acrylamide]"
44.6,51.8,37,"C=CC(=O)Nc1cc2c(Nc3cccc(-c4c(F)cccc4F)c3)ncnc2cc1OCCCN1CCN(C2CC2)CC1 [Example 29, N-(7-(3-(4-cyclopropylpiperazin-1-yl)propoxy)-4-((2′,6′-difluoro-[1,1′-biphenyl]-3-yl)amino)quinazolin-6-yl)acrylamide]"
7.8,86.5,2.4,"C=CC(=O)Nc1cc2c(Nc3ccnc(-c4ccccc4F)c3)ncnc2cc1O[C@@H]1CCN(C(C)C)C1 [Example 125, (R)-N-(4-((2-(2-fluorophenyl)pyridin-4-yl)amino)-7-((1-isopropylpyrrolidin-3-yl)oxy)quinazolin-6-yl)acrylamide]"
3.1,9.3,1.9,"C=CC(=O)Nc1cc2c(Nc3ccnc(-c4ccccc4F)c3)ncnc2cc1OCCCN1CCN(CC)CC1 [Example 71, N-(7-(3-(4-ethylpiperazin-1-yl)propoxy)-4-((2-(2-fluorophenyl)pyridin-4-yl)amino)quinazolin-6-yl)acrylamide]"
55.6,287,31.8,"C=CC(=O)Nc1cc2c(Nc3ccc(F)c(-c4ccc(F)cc4)c3)ncnc2cc1OCCCN1CCN(C)CC1 [Example 42, N-(4-((4′,6-difluoro-[1,1′-biphenyl]-3-yl)amino)-7-(3-(4-methylpiperazin-1-yl)propoxy)quinazolin-6-yl)acrylamide]"
177,597,70.5,"C=CC(=O)Nc1cc2c(Nc3cccc(-c4ccc(F)cc4F)c3)ncnc2cc1OCCN1CCC(F)(F)C1 [Example 19, N-(4-((2′,4′-difluoro-[1,1′-biphenyl]-3-yl)amino)-7-(2-(3,3-difluoropyrrolidin-1-yl)ethoxy)quinazolin-6-yl)acrylamide]"
3.3,26.3,1.1,"C=CC(=O)Nc1cc2c(Nc3ccnc(-c4ccccc4F)c3)ncnc2cc1O[C@@H]1CCN(C2COC2)C1 [Example 114, (R)—N-(4-((2-(2-fluorophenyl)pyridin-4-yl)amino)-7-((1-(oxetan-3-yl)pyrrolidin-3-yl)oxy)quinazolin-6-yl)acrylamide]"
9.8,19.1,2.6,"C=C(F)C(=O)Nc1cc2c(Nc3ccnc(-c4ccccc4F)c3)ncnc2cc1O[C@@H]1CCN(C2COC2)C1 [Example 118, (R)-2-fluoro-N-(4-((2-(2-fluorophenyl)pyridin-4-yl)amino)-7-((1-(oxetan-3-yl)pyrrolidin-3-yl)oxy)quinazolin-6-yl)acrylamide]"
22.6,357,11.4,"C=CC(=O)Nc1cc2c(Nc3cccc(-n4nccn4)c3)ncnc2cc1OCCCN1CCN(C)CC1 [Example 56, N-(4-((3-(2H-1,2,3-triazol-2-yl)phenyl)amino)-7-(3-(4-methylpiperazin-1-yl)propoxy)quinazolin-6-yl)acrylamide]"
2.6,624,1.7,"C=CC(=O)Nc1cc2c(Nc3ccnc(-c4ccccc4F)c3)ncnc2cc1OC [Example 82, N-(4-((2-(2-fluorophenyl)pyridin-4-yl)amino)-7-methoxyquinazolin-6-yl)acrylamide]"
